The text below walks through data of patent US20080161255A1, “Use of Parp Inhibitors for Prevention and Treatment of Diabetic and Insulin Resistance Complications” (priority 2003, published 2008).

One experiment concerns prostacyclin synthetase. As to the kind of experiment: Arterial prostacyclin synthetase activity in insulin resistant Fatty Zucker Rats. In kind it is in vivo. The note with it: Fatty Zucker Rats treated for one week; untreated had only 1% of control Zucker rat activity. The source says: In order to examine whether this phenomenon was present in vivo, and thus had direct clinical relevance, we studied an accepted model of non-diabetic insulin resistance, the Fatty Zucker Rat. In these rats, we examined the activity of the endothelial cell surface enzyme prostacyclin synthetase, which produces a major anti-atherosclerotic product, prostacyclin. This enzyme is known to be directly inactivated by reactive oxygen species.

Experiment [1] deals with GAPDH. As to the kind of experiment: Poly(ADP-ribosyl)ation of GAPDH (immunoprecipitation and western blotting). Format: cell-based, bovine. Conditions: adenoviral overexpression or 3 mM PJ34. How it is done: Immunoprecipitation. BAECs were plated in 100 mm cell culture plates and grown to confluency. Cells (2×10^7) were scraped from the plates, and 500 μg of protein was immunoprecipitated with 4 μg of the indicated antibody and 20 μl of Protein A Sepharose 4B (Amersham Phamacia Biotech) in binding buffer (final concentration […]).
Western blotting. Immunoprecipitated proteins electrophoresed on 10% PAGE gels were transferred onto nitrocellulose membranes. The immunoblots were developed with 1:1000 dilutions of anti-poly(ADPribose) IgG, and the signal was detected with the ECL System according to the manufacturer's instructions (Amersham Pharmacia Biotech). The images were scanned into a Molecular Dynamics FluorImager and analyzed using the ImageQuant 5.5 program.
For orientation: In western blotting, separated proteins are transferred to a membrane and probed.

Experiment [2] deals with intracellular AGE formation. Description: Intracellular advanced glycation endproduct formation (quantitative immunoblotting). Format: cell-based, bovine. Conditions: 30 mM glucose plus PJ34. How it is done:
(§1) Cell culture conditions. Confluent bovine aortic endothelial cells (passage 4-10) were maintained in Eagle's MEM containing 0.4% FBS, essential and non-essential amino acid and antibiotics. Cells were incubated for 3 days prior to determination of PKC activity, 48 hr prior to determination of hexosamine pathway activity, for 5 days prior to determination of advanced glycation end product formation, and for 6 hr prior to determination of NFκB activation. Cells were infected with adenoviruses 48 hr prior to addition of 30 mM glucose.
Advanced glycation endproducts. Equal amounts of cell extract protein were used for quantitative immunoblotting performed as described (14). Methylglyoxal-derived imidazole advanced glycation endproducts were detected using monoclonal antibody 1H7G5 (identified above as IG7) at a 1:10,000 dilution. Immunocomplexes were visualized using an ECF kit according to the manufacturer's instructions (Amersham International, Piscataway, N.J.) and quantified using a Molecular Dynamics FluorImager and its ImageQuant 4.0 analytical software.

The test system of a further experiment is protein kinase C. Description: Protein kinase C activity (membrane fraction) in bovine aortic endothelial cells. In kind it is cell-based. The note with it: 30 mM glucose plus PJ34. The method, then: as §1
Protein kinase C activity. The assay was performed according to the manufacturer's instructions using the Protein Kinase C Assay System (Invitrogen, Carlsbad, Calif.).

Another experiment concerns hexosamine pathway. As to the kind of experiment: Hexosamine pathway activity (UDP-GlcNAc concentration by HPLC). The note with it: 30 mM glucose plus PJ34. In kind it is cell-based, bovine. How it is done: as §1
Hexosamine pathway activity. Hexosamine pathway activity was assessed by measuring UDP-GlcNAc concentration. Cells were homogenized in three volumes (600 μl) of cold 0.6 M perchloric acid and kept at 0° C. for 10 min. The precipitated proteins were removed by centrifugation for 5 min at 13,500×g, and UDP-GlcNAc in the supernatant was determined by HPLC as previously described (13).

Experiment [3] has as its system GAPDH. Description: GAPDH activity in bovine aortic endothelial cells. In kind it is cell-based. The note with it: 30 mM glucose; adenoviral overexpression or 3 mM PJ34. The method, then: Cell culture conditions. Confluent bovine aortic endothelial cells (passage 4-10) were maintained in Eagle's MEM containing 0.4% FBS, essential and non-essential amino acid and antibiotics. […] Cells were infected with adenoviruses 48 hr prior to addition of 30 mM glucose. Oligonucleotide synthesis and treatment of cells. […] The S-antisense GAPDH had the following sequence: [NT]. Scrambled oligonucleotides ([NT]) were used as controls. Oligo solutions were prepared in 10 mM TRIS buffer, pH 7.4, containing 1 mM EDTA NaCl. […], and the solution was added to the cells for 2 hr. GAPDH activity. BAECs were grown to confluency, harvested by using trypsin-EDTA after washing twice with PBS, and resuspended in lysis buffer. […] Protein was measured by using the Bio-Rad Coomassie Plus Protein Assay System. GAPDH activity was determined as described previously (Garcia et al., 2001; Tau et al., 1994).

For a further experiment, the system named is NFκB. Description: NFκB activation (fluorescence in situ DNA-protein binding assay). Format: cell-based, bovine. The note with it: 30 mM glucose plus PJ34. The method, then: as §1
NFκB activation. A fluorescence in situ DNA-protein binding assay was performed in cultured cells as described (Kurose et al., 1997), and fluorescence per cell was determined using IP Lab Spectrum (Scanalytics, Fairfax, Va.).

Experiment [4] relates to bovine aortic endothelial cells. Description: FFA-induced superoxide / reactive oxygen species generation in endothelial cells. The note with it: FFA-treated endothelial cells. In kind it is cell-based. The source says: FIG. 8 is a graph of experimental data showing the effects of inhibitors of free fatty acid (FFA) oxidation (TDGA), UCP-1, and MnSOD on FFA-induced superoxide generation in bovine aortic endothelial cells.
Since mitochondrial β-oxidation of fatty acids yields the same electron donors as those obtained from glucose metabolism, that is, NADH and FADH2, we hypothesized that increased free fatty acid flux from adipose tissue to vascular endothelium would also increase mitochondrial production of superoxide.

Experiment [5] concerns the target T1, poly(ADP-ribose) polymerase (Bos taurus, UniProt P18493).
T1 construct: endogenous in cells; host or cells: bovine aortic endothelial cells
Description: Poly(ADP-ribose) polymerase activity in aortic endothelial cells. In kind it is cell-based, bovine. Conditions: aortic endothelial cells incubated with oleic acid at levels found in non-diabetic insulin resistance subjects. How it is done: Poly(ADP-ribose) polymerase activity. Cells were incubated for 5 min at 37° C. in assay buffer containing 125 nmol NAD^+ spiked with 0.25 μCi of ^3H-NAD^+ (Amersham) as described (12). Enzyme activity was determined by measuring cpm incorporated into protein.

SMILES strings stand for the structures.

T1 sequence (P18493 whole entry): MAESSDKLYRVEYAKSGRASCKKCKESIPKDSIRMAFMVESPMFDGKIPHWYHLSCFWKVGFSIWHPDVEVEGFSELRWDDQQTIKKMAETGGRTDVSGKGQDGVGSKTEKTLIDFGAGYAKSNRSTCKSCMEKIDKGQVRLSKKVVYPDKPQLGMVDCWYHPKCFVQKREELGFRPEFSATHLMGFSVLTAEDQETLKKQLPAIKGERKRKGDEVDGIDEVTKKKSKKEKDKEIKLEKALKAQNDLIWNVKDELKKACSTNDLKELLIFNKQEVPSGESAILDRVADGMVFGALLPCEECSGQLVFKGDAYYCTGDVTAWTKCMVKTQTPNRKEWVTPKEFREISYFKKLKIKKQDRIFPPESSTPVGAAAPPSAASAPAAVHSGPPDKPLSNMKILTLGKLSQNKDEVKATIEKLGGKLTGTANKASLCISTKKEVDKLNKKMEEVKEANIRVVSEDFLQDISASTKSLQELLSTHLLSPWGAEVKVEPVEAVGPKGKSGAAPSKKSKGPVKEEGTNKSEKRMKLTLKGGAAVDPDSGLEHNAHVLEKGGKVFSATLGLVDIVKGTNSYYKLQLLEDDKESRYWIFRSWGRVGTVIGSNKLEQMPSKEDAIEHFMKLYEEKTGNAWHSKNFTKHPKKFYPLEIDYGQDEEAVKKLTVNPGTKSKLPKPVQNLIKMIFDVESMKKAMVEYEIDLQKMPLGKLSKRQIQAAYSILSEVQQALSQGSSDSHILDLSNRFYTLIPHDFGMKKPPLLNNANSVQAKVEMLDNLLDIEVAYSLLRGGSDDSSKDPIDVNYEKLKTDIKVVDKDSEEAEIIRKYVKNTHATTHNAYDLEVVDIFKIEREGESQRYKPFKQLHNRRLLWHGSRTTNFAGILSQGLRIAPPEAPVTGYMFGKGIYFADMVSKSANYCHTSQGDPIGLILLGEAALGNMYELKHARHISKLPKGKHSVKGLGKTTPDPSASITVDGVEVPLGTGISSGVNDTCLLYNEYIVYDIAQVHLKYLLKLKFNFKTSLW

As for `O=C(O)c1ccc(-c2c3nc(c(-c4ccc(C(=O)O)cc4)c4ccc([n-]4)c(-c4ccc(C(=O)O)cc4)c4nc(c(-c5ccc(C(=O)O)cc5)c5ccc2[n-]5)C=C4)C=C3)cc1.[Mn+3]` [MnTBAP, Manganese (III) tetrakis(4-benzoic acid) porphyrin], the “activity of prostacyclin synthetase in aortas” value with prostacyclin synthetase is given as “restored to supranormal levels”.

Consider `CN(C)CC(=O)Nc1ccc2[nH]c(=O)c3ccccc3c2c1` [PJ34, N-(oxo-5,6-dihdrophenanthridin-2-yl)-N,N-dimethylacetamide], for which the “poly(ADP-ribosyl)ation of GAPDH induced by 30 mM glucose” value in the experiment with GAPDH [1] is on record as “completely prevented”. Further, in [2], the “effect of 30 mM glucose on intracellular AGE formation” value is on record as “completely prevented”. In the experiment on protein kinase C, the “activation of PKC by 30 mM glucose” value was “completely prevented”. In the experiment on hexosamine pathway, the “effect of 30 mM glucose on UDP-N-acetylglucosamine concentration (hexosamine pathway)” value was “completely prevented”. Besides, the “hyperglycemia-induced inhibition of GAPDH activity” value in the experiment on GAPDH [3] is listed as “prevention”. Moreover, in the experiment with NFκB, the “effect of 30 mM glucose on NFκB activation” value is listed as “completely prevented”.

As to `CCCCCCCCCCCCCCC1(C(=O)O)CO1` (stereo not shown) [TDGA], the “ability of FFAs to induce reactive oxygen species in endothelial cells” value in experiment [4] is reported as “inhibited”.

Turning to `O=C(O)c1cccnc1` [nicotinic acid], in the experiment with prostacyclin synthetase, the “activity of prostacyclin synthetase in aortas” value is recorded as “restored to normal levels”.

Take `CCCCCCCC/C=C\CCCCCCCC(=O)O` [oleic acid]: the “increase of PARP activation” value in [5] is 1.5 fold.
